Values after ≈ are worked out from the molar mass of the structure shown. Counter-ions that a name gives are not always drawn.
assay: physchem; details: 20 °C, water, thermodynamic from solid
Experimental: The water solubility of the pharmacologically active ingredient was determined by the method described in the Japanese Pharmacopoeia, the General Rule 13, Paragraph 23.

Compound | solubility at 30 min
CN(C)C(=O)C(CCN1CCC(O)(c2ccc(Cl)cc2)CC1)(c1ccccc1)c1ccccc1 [loperamide hydrochloride] | ~1 mg/mL

same assay, conditions: water, 20 °C, thermodynamic from solid

Compound | solubility at 30 min
Nc1c(Br)cc(Br)cc1CN[C@H]1CC[C@H](O)CC1 [ambroxol hydrochloride] | ~20 mg/mL
O=c1[nH]c2ccccc2n1CCCN1CCC(n2c(=O)[nH]c3cc(Cl)ccc32)CC1 [domperidone] | ~0.002 mg/mL (≈ 4.7 µM)
NC(N)=Nc1nc(CSCCC(N)=NS(N)(=O)=O)cs1 [famotidine] | ~0.7 mg/mL (≈ 2070 µM)

Results, then the compound that gave them:

solubility at 30 min | Compound
~60 mg/mL (≈ 276000 µM) | C[C@H](CS)C(=O)N1CCC[C@H]1C(=O)O [captopril]
~100 mg/mL | COc1ccc(OC)c(C(O)CNC(=O)CN)c1 (stereo not drawn) [midodrine hydrochloride]

— patent US20040122106A1, “Tablets quickly disintegrating in oral cavity” (priority 2001, published 2004)
